Measurements as given in PubChem BioAssay AID192 (DTP/NCI, 2004).
Where “and” joins values, the source holds several entries; their conditions need not be identical. Identical values can stand only once. Toxic doses and inconclusive results are not listed. How the source made its calls: active means survival T/C of 150% or more; inactive means T/C below 125% in these data.

Tested on: BDF1 mice, B16 melanoma ip, median survival T/C
Assay: NCI In Vivo Anticancer Drug Screen. Data for tumor model B16 Melanoma (intraperitoneal) in B6D2F1 (BDF1) mice
Settings: endpoint: median survival time, higher = longer survival
Summary of the method: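 Mice with transplantable tumors; drug vs vehicle groups; endpoint survival or tumor size; value = T/C.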

[1] = dose: 200.0 mg/kg/injection, schedule: Q01DX009 (ip), vehicle: Klucel (hydroxypropylcellulose) (HPC)
[2] = dose: 25.0 mg/kg/injection, schedule: Q01DX009 (ip), vehicle: saline with Tween-80
[3] = dose: 50.0 mg/kg/injection, schedule: Q01DX009 (ip), vehicle: saline with Tween-80
[4] = dose: 50.0 mg/kg/injection, schedule: Q04DX003 (ip), vehicle: Klucel (hydroxypropylcellulose) (HPC)
[5] = dose: 100.0 mg/kg/injection, schedule: Q04DX003 (ip), vehicle: Klucel (hydroxypropylcellulose) (HPC)
[6] = dose: 12.5 mg/kg/injection, schedule: Q01DX009 (ip), vehicle: saline
[7] = dose: 25.0 mg/kg/injection, schedule: Q01DX009 (ip), vehicle: saline
[8] = dose: 100.0 mg/kg/injection, schedule: Q01DX009 (ip), vehicle: saline with Tween-80
[9] = dose: 100.0 mg/kg/injection, schedule: Q01DX009 (ip), vehicle: Klucel (hydroxypropylcellulose) (HPC)
[10] = dose: 200.0 mg/kg/injection, schedule: Q04DX003 (ip), vehicle: Klucel (hydroxypropylcellulose) (HPC)
[11] = dose: 400.0 mg/kg/injection, schedule: Q04DX003 (ip), vehicle: Klucel (hydroxypropylcellulose) (HPC)
[12] = dose: 400.0 mg/kg/injection, schedule: Q01DX009 (ip), vehicle: saline
[13] = dose: 200.0 mg/kg/injection, schedule: Q01DX009 (ip), vehicle: saline with Tween-80
[14] = dose: 6.25 mg/kg/injection, schedule: Q01DX009 (ip), vehicle: saline
[15] = dose: 50.0 mg/kg/injection, schedule: Q01DX009 (ip), vehicle: Klucel (hydroxypropylcellulose) (HPC)
[16] = dose: 400.0 mg/kg/injection, schedule: Q01DX009 (ip), vehicle: saline with Tween-80

Measured: T/C

Oc1ccccc1O.[O-]c1ccccc1[O-].[O-]c1ccccc1[O-].[O]=[V+2]
inactive: dose: 2.5 mg/kg/injection, schedule: Q01DX009 (ip), vehicle: saline 88 % of control | dose: 5.0 mg/kg/injection, schedule: Q01DX009 (ip), vehicle: saline 91 % of control | dose: 10.0 mg/kg/injection, schedule: Q01DX009 (ip), vehicle: saline 97 % of control

COc1cc(/C=C2/c3cc(Cl)ccc3-c3c(Cl)cc(Cl)cc32)cc(OC)c1OC
inactive: dose: 0.2 mg/kg/injection, schedule: Q01DX009 (ip), vehicle: saline with Tween-80 86 % of control | dose: 0.4 mg/kg/injection, schedule: Q01DX009 (ip), vehicle: saline with Tween-80 86 % of control | dose: 0.8 mg/kg/injection, schedule: Q01DX009 (ip), vehicle: saline with Tween-80 86 % of control

CP(=S)(c1ccccc1)P(C)(=S)c1ccccc1 (stereo unspecified)
inactive: [1] 119 % of control

CCn1cnc2c(=S)nc[nH]c21
inactive: dose: 6.25 mg/kg/injection, schedule: Q01DX009 (ip), vehicle: saline with Tween-80 97 % of control | dose: 12.5 mg/kg/injection, schedule: Q01DX009 (ip), vehicle: saline with Tween-80 86 % of control | [2] 95 % of control | [3] 89 % of control and 104 % of control

Oc1ccc2ccc3[nH]cnc3c2c1
inactive: [4] 100 % of control | [5] 105 % of control

C=C1C(=O)OC2CC1CCC1(C)OC1CCC(C)=CCCC2(C)O (stereo unspecified)
inactive: dose: 0.04 mg/kg/injection, schedule: Q01DX009 (ip), vehicle: Klucel (hydroxypropylcellulose) (HPC) 90 % of control | dose: 0.09 mg/kg/injection, schedule: Q01DX009 (ip), vehicle: Klucel (hydroxypropylcellulose) (HPC) 91 % of control | dose: 1.8 mg/kg/injection, schedule: Q01DX009 (ip), vehicle: Klucel (hydroxypropylcellulose) (HPC) 86 % of control and 91 % of control | dose: 7.5 mg/kg/injection, schedule: Q01DX009 (ip), vehicle: Klucel (hydroxypropylcellulose) (HPC) 98 % of control

FC(F)(F)c1cc(CN(CCCl)CCCl)cc(C(F)(F)F)c1
inactive: [6] 97 % of control | [7] 92 % of control

COC1OC2COC(c3ccccc3)OC2C(O)C1N (stereo unspecified)
inactive: [2] 95 % of control | dose: 33.0 mg/kg/injection, schedule: Q04DX003 (ip), vehicle: saline with Tween-80 91 % of control | [3] 95 % of control | dose: 75.0 mg/kg/injection, schedule: Q04DX003 (ip), vehicle: saline with Tween-80 93 % of control | [8] 90 % of control

Nc1nc(=S)c2ncn(C3OC(CO)C(O)C3O)c2[nH]1 (stereo unspecified)
inactive: dose: 0.5 mg/kg/injection, schedule: Q01DX009 (ip), vehicle: saline with Tween-80 109 % of control | dose: 1.0 mg/kg/injection, schedule: Q01DX009 (ip), vehicle: saline sonified 106 % of control | dose: 1.0 mg/kg/injection, schedule: Q01DX009 (ip), vehicle: saline with Tween-80 122 % of control | dose: 2.0 mg/kg/injection, schedule: Q01DX009 (ip), vehicle: saline sonified 102 % of control | dose: 2.0 mg/kg/injection, schedule: Q01DX009 (ip), vehicle: saline with Tween-80 113 % of control

CC(=O)CC(=O)Nc1ccc(C(=O)O)c(O)c1
inactive: [9] 86 % of control | [1] 89 % of control

Cc1ccc(S(=O)(=O)N=S2CCCC2)cc1
inactive: [4] 100 % of control | [5] 102 % of control | [10] 103 % of control | [11] 102 % of control

CCCCNC(C)(C)C(SS)c1ccco1 (stereo unspecified)
inactive: dose: 3.0 mg/kg/injection, schedule: Q01DX009 (ip), vehicle: alcohol 107 % of control | dose: 6.0 mg/kg/injection, schedule: Q01DX009 (ip), vehicle: alcohol 107 % of control | dose: 12.0 mg/kg/injection, schedule: Q01DX009 (ip), vehicle: alcohol 112 % of control | dose: 37.5 mg/kg/injection, schedule: Q01DX009 (ip), vehicle: saline 87 % of control | dose: 55.0 mg/kg/injection, schedule: Q01DX009 (ip), vehicle: saline 106 % of control

CC1CCC(O)C1O (stereo unspecified)
inactive: dose: 100.0 mg/kg/injection, schedule: Q01DX009 (ip), vehicle: saline 120 % of control | dose: 200.0 mg/kg/injection, schedule: Q01DX009 (ip), vehicle: saline 120 % of control | [12] 122 % of control

O=C(COc1ccc(Cl)cc1)Nc1ccccc1F
inactive: [2] 102 % of control | [3] 92 % of control | [8] 92 % of control

CC(=O)NCc1cc(CNC(C)=O)c(C)cc1C
inactive: [8] 88 % of control | [13] 86 % of control

CNC(C)CC1CCCCC1 (stereo unspecified)
inactive: dose: 3.12 mg/kg/injection, schedule: Q01DX009 (ip), vehicle: saline 100 % of control | [14] 100 % of control | [6] 100 % of control | [7] 95 % of control

O=C(O)c1c(O)c(-c2ccccc2)nc2ccccc12
inactive: [15] 103 % of control | [9] 103 % of control

CCOc1cc(N2CCOCC2)c(OCC)cc1N
inactive: [14] 95 % of control | [6] 102 % of control | [7] 100 % of control

O=C(Nc1cccc2ccccc12)Oc1ccccc1Cc1ccccc1
inactive: dose: 100.0 mg/kg/injection, schedule: Q04DX003 (ip), vehicle: saline 100 % of control | dose: 200.0 mg/kg/injection, schedule: Q04DX003 (ip), vehicle: saline 106 % of control | dose: 400.0 mg/kg/injection, schedule: Q04DX003 (ip), vehicle: saline 106 % of control

OC1COC(c2ccco2)OC1 (stereo unspecified) (tested in a mixture with another compound)
inactive: [15] 100 % of control | [9] 100 % of control | [1] 106 % of control

CC(=O)OC1C2CCC(C2)C1C (stereo unspecified)
inactive: dose: 100.0 mg/kg/injection, schedule: Q04DX003 (ip), vehicle: saline with Tween-80 105 % of control | dose: 200.0 mg/kg/injection, schedule: Q04DX003 (ip), vehicle: saline with Tween-80 100 % of control | dose: 400.0 mg/kg/injection, schedule: Q04DX003 (ip), vehicle: saline with Tween-80 97 % of control

O=C(O)/C=C/C(=O)NCc1ccco1
inactive: [9] 102 % of control | [1] 86 % of control

O=C1CCC(N2C(=O)c3ccccc3C2=O)C(=O)N1 (stereo unspecified)
inactive: dose: 25.0 mg/kg/injection, schedule: Q01DX009 (ip), vehicle: Klucel (hydroxypropylcellulose) (HPC) 100 % of control | dose: 25.0 mg/kg/injection, schedule: Q04DX003 (ip), vehicle: Klucel (hydroxypropylcellulose) (HPC) 99 % of control | [15] 102 % of control | [4] 106 % of control | [9] 94 % of control | [5] 94 % of control | [1] 100 % of control | [10] 99 % of control | dose: 400.0 mg/kg/injection, schedule: Q01DX009 (ip), vehicle: Klucel (hydroxypropylcellulose) (HPC) 102 % of control | [11] 94 % of control

C[C@]12CC[C@H]3C(=CCc4cc(O)ccc43)[C@@H]1C/C(=N\O)C2=O
inactive: [8] 95 % of control | [13] 102 % of control | [16] 90 % of control

O=S1(=O)CC2(N3CCOCC3)CCCCC21 (stereo unspecified)
inactive: [8] 102 % of control | [13] 104 % of control

CCC(=O)Nc1ccc(C)c(Cl)c1
inactive: [8] 105 % of control | [13] 105 % of control | [16] 115 % of control

C=CN1CCCC1=O
inactive: dose: 178.0 mg/kg/injection, schedule: Q01DX009 (ip), vehicle: saline 109 % of control | dose: 266.0 mg/kg/injection, schedule: Q01DX009 (ip), vehicle: saline 100 % of control | [12] 104 % of control | dose: 600.0 mg/kg/injection, schedule: Q01DX009 (ip), vehicle: saline 111 % of control | dose: 750.0 mg/kg/injection, schedule: Q01DX009 (ip), vehicle: saline 108 % of control

O=[N+]([O-])c1ccc(C2OC2c2ccccc2)cc1 (stereo unspecified)
inactive: dose: 9.38 mg/kg/injection, schedule: Q01DX009 (ip), vehicle: saline with Tween-80 100 % of control | dose: 12.5 mg/kg/injection, schedule: Q01DX009 (ip), vehicle: Klucel (hydroxypropylcellulose) (HPC) 103 % of control | dose: 18.7 mg/kg/injection, schedule: Q01DX009 (ip), vehicle: saline with Tween-80 105 % of control | dose: 37.5 mg/kg/injection, schedule: Q01DX009 (ip), vehicle: saline with Tween-80 97 % of control | [15] 100 % of control | dose: 75.0 mg/kg/injection, schedule: Q01DX009 (ip), vehicle: saline with Tween-80 102 % of control | dose: 150.0 mg/kg/injection, schedule: Q01DX009 (ip), vehicle: saline with Tween-80 97 % of control

COc1ccc(/C=C2\CCC3C(=O)CCCC3(C)C2=O)cc1 (stereo unspecified)
inactive: [5] 94 % of control | [10] 92 % of control | [11] 89 % of control
